“And” between values parts separate entries of the source, which are not always exact repeats. Equal values may be shown once.
Test system: ICR mice
Assay: Phenylquinone-induced writhing model in mice (Example 16)
Format: in vivo
Settings: IP; for No. of Writhings Individual: individual mice
Method: KRS-5-150 was evaluated for possible analgesic activity in the phenylquinone-induced writhing model in mice (Siegmund et al, 1957). A serial 2-fold dosage variance was used in the test, from 128 mg/kg to 1 mg/kg (8 doses in total). Groups of 3 male or female ICR mice weighing 22±2 g were employed. A serial 2-fold dosage variance was used in the test (8 doses in total). Variant doses (1, 2, 4, 8, 16, 32, 64 and 128 mg/kg) of test substances were administered intraperitoneally (IP). A vehicle of 2% Tween 80 in 0.9% NaCl was used for the intraperitoneal injection. The control group received vehicle alone. […] A reduction in the number of writhes by 50 percent or more (≧50%) relative to the vehicle-treated group indicated possible analgesic activity.

## Oc1ccc2c3c1O[C@H]1[C@@H](O)C=C[C@H]4[C@@H](C2)N(CCCNC(=Nc2ccccc2)Nc2ccccc2)CC[C@@]341 [KRS-5-150, (5α,6α)-7,8 didehydro-4,5-epoxy-17-(N,N′-bisphenylcarboxamidino-3-aminopropyl)morphinan,3,6-diol]
1 mg/kg, Table 1
  % Inhibition: 33%
  No. of Writhings Average: 10
  No. of Writhings Individual: 14 and 0 and 16
2 mg/kg, Table 1
  % Inhibition: 73%
  No. of Writhings Average: 4
  No. of Writhings Individual: 8 and 1 and 4
4 mg/kg, Table 1
  % Inhibition: 80%
  No. of Writhings Average: 3
  No. of Writhings Individual: 0 and 7 and 3
8 mg/kg, Table 1
  % Inhibition: 87%
  No. of Writhings Average: 2
  No. of Writhings Individual: 4 and 0 and 2
16 mg/kg, Table 1
  % Inhibition: 80%
  No. of Writhings Average: 3
  No. of Writhings Individual: 0 and 4 and 5
32 mg/kg, Table 1
  % Inhibition: 100%
  No. of Writhings Average: 0
  No. of Writhings Individual: 0 (2×) and 1
64 mg/kg, Table 1
  % Inhibition: 100%
  No. of Writhings Average: 0
  No. of Writhings Individual: 0
128 mg/kg, Table 1
  died (animals of group of 3): 2/3 died
  No. of Writhings Individual: 0
Doses of 64, 32, 16, 8, 4 and 2 mg/kg
  analgesic activity (≧50% reduction in writhes): Significant activity
